{"source": "paper PMC4374761", "about": "“Pharmacokinetics and Metabolism of 4R-Cembranoid” (PLoS ONE, 2015)", "key": {"[1]": {"assay": "Metabolic stability / metabolite detection in human liver microsomes", "description": "(§1) Pooled male and female human and rat liver microsomes were obtained commercially from BD Bioscience (San Jose, CA) and Xenotech (Lenexa, KS), respectively. […] Reactions were started by the addition of microsomes and stopped by removing 100 μL aliquots at each time point. […] As positive control, 10μM midazolam was incubated with microsomes for 0, 15, 30 and 60 min in a 37°C water bath and with heat-inactivated microsomes for 0 and 60 min. […] All assays were done in duplicates.\n(§2) Reactions were stopped by removing 150 μL aliquots at 0, 5, 15, and 30 min and mixing with acetonitrile containing hexyl nicotinate as internal standard. […] Samples were analyzed in full-scan mode with MS/MS product-ion spectra generated for detected metabolite masses. This was performed using the EMS (enhanced MS scan) mode of the mass spectrometer with IDA (independent data acquisition) experiments to produce MS/MS product-ion spectra for masses detected at sufficient intensities. […] All assays were done in duplicate."}, "[2]": {"assay": "Plasma and brain 4R concentrations and pharmacokinetics in male rats", "type": "in vivo, Sprague-Dawley rat", "conditions": "for Kp at 1.5 h: brain and plasma, 90 min after dose, read-out: Ratio Cmax brain/ plasma; for Kp at 1.5 h / Cmax / Tmax / half-life: 6 mg/kg; for bioavailability: read-out: F (bioavailability)", "description": "Twelve-week old male Sprague-Dawley rats weighing 307–373 g at the time of the experiment were used. […] The dosing volume of injection was 0.5 mL/kg for the i.m. and s.c. routes and 5 mL/kg for the i.v. route. […] Animal procedure for housing and care was performed according to the National Research Council (NRC) Guide for the Care and Use of Laboratory Animals and the Animal Welfare Standards incorporated in 9 Code of Federal Regulations Part 3, 1991. The animals had 12 hr light/dark cycles and at least 10 room volumes per hour with no recirculation of air. Purina certified rodent chow and water was provided ad libitum.\nBlood samples were collected via a jugular vein catheter at each of the following time points: 2, 5, 10, 20, 45, 60, 90 min and 2, 4, 8 hr. […] The samples were vortexed, centrifuged and the supernatants removed. The supernatants were evaporated to dryness and reconstituted in a solvent mixture containing 50/50/0.1 acetronile/water/formic acid (v/v/v) with 10ng/mL hexyl nicotinate as internal standard. […] Rat brains were collected at 10, 60 or 90 min, and 8 hr post dose and frozen at -70°C. On the day of the analysis, the brains were homogenized in PBS using 4 parts phosphate buffer and 1 part brain (g/g). […] The lower limit of quantitation of the LC-MS/MS was 20.0 ng/ml for plasma and 100 ng/g for brain.\nParameters were calculated for each individual animal. The peak concentration in plasma (Cmax) and the corresponding time of maximum concentration (Tmax) were determined directly from the data. The area under the plasma concentration-time curve (AUC) from time 0–8 hr was calculated using the log/linear trapezoidal (i.v. route) or linear up/log down trapezoidal (i.m. and s.c routes) methods. The dose administered was input to the program as mg/kg, and as a result no additional corrections for individual body weights of the animals were necessary. The following parameters and constants were determined for the three groups: observed maximum plasma concentration (Cmax), time to maximum plasma concentration (Tmax), area under the plasma concentration-time curve to the last time point (AUClast), area under the plasma concentration-time curve extrapolated to infinity (AUCinf), terminal phase elimination half-life (t1/2). Bioavailability (F) after i.m. and s.c. administration was calculated using their respective AUCinf values divided by the AUCinf value of the i.v. group."}, "[3]": {"assay": "Solubility of 4R in dosing vehicle", "type": "physicochemical", "conditions": "12 mg/mL in 10% DMSO and 90% PEG400, room temperature", "description": "The solution was sterile filtered using a Millipore Millex-GS 0.22 μm syringe filter. Dose formulations were prepared on Day 1 prior to dose administration and were maintained at room temperature until administration to the animals."}, "[4]": {"assay": "Metabolic stability / metabolite detection in rat liver microsomes", "description": "as §1, §2"}, "[5]": {"assay": "4R plasma stability in rat plasma", "type": "in vitro ADME", "conditions": "10 μM 4R", "description": "The samples were centrifuged at 18,000 x g for 10 min and the supernatants (100–250 μL) transferred to an HPLC vial containing 900 μl of 60% acetonitrile. The LC-MS/MS analysis was carried out using a high-performance liquid chromatography system consisting of a Shimadzu LC-20AD pump, (Shimadzu Scientific Instruments, Columbia, MA), and a CTC analytics PAL autosampler operating at 10°C (Leap technologies, Carrboro, NC). The MS instrument used was a 4000 QTrap triple quadrupole tandem mass spectrometer (Applied Biosystems/MDS Sciex, Foster City, CA). Electrospray ionization in positive ion mode (ESI+) was used. The detection of 4R was performed using the multiple reaction monitoring (MRM) mode. […] All samples were assayed in duplicate."}, "[6]": {"assay": "4R plasma stability in human plasma", "type": "in vitro ADME", "conditions": "10 μM 4R, 0-60 min at 37°C", "protocol": "The samples were centrifuged at 18,000 x g for 10 min and the supernatants (100–250 μL) transferred to an HPLC vial containing 900 μl of 60% acetonitrile. The LC-MS/MS analysis was carried out using a high-performance liquid chromatography system consisting of a Shimadzu LC-20AD pump, (Shimadzu Scientific Instruments, Columbia, MA), and a CTC analytics PAL autosampler operating at 10°C (Leap technologies, Carrboro, NC). The MS instrument used was a 4000 QTrap triple quadrupole tandem mass spectrometer (Applied Biosystems/MDS Sciex, Foster City, CA). Electrospray ionization in positive ion mode (ESI+) was used. […] All samples were assayed in duplicate."}, "[7]": {"conditions": "10 μM, 5 min, metabolite detection experiment"}, "[8]": {"conditions": "10 μM, 15 min, metabolite detection experiment"}, "[9]": {"conditions": "50 μM, 30 min, metabolite detection experiment"}, "[10]": {"conditions": "both, human, liver microsomes, pH 7.4"}, "[11]": {"conditions": "male, Sprague-Dawley, rat, plasma, im, 6 mg/kg i.m."}, "[12]": {"conditions": "male, Sprague-Dawley, rat, plasma, iv, 6 mg/kg i.v."}, "[13]": {"conditions": "male, Sprague-Dawley, rat, plasma, sc, 6 mg/kg s.c."}, "[14]": {"conditions": "both, rat, liver microsomes, pH 7.4"}, "[15]": {"conditions": "10 μM, heat-inactivated microsomes, 60 min"}}, "note": "Several values for one entry are separate records, joined by “and”; a condition that tells them apart may be missing. Equal values may be shown once. Read-outs that look alike come from different tables or passages of the source."}
{"compound": "C/C1=C\\[C@H](O)C[C@@](C)(O)/C=C/C(C(C)C)CC/C(C)=C/CC1", "note": "(stereo partly drawn) [4R, (1S, 2E, 4R, 6R, 7E, 11E)-cembra-2,7,11-triene-4,6-diol]", "values": [{"measurement": "percent 4R remaining", "setting": "[1]; [7]", "result": 18, "unit": "%"}, {"measurement": "percent 4R remaining", "setting": "[1]; [8]", "result": "less than 2%"}, {"measurement": "mean percent 4R remaining", "setting": "[1]; [9]", "result": "≤ 7.3", "unit": "%"}, {"measurement": "remaining at 5 min, 1 μM", "setting": "[1]; [10]", "result": 8, "unit": "%"}, {"measurement": "remaining at 5 min, 10 μM", "setting": "[1]; [10]", "result": 15, "unit": "%"}, {"measurement": "remaining at 0.25 h, 1 μM", "setting": "[1]; [10]", "result": 4, "unit": "%"}, {"measurement": "remaining at 0.25 h, 10 μM", "setting": "[1]; [10]", "result": "< 2", "unit": "%"}, {"measurement": "Brain Cmax", "setting": "[2]; 6 mg/kg i.m.", "result": "329 ng/g and 329 ± 50 ng/g"}, {"measurement": "time to maximum brain level", "setting": "[2]; 6 mg/kg i.m.", "result": 90, "unit": "min"}, {"measurement": "plasma 4R level", "setting": "[2]; 6 mg/kg i.m., by 8 hr post dose", "result": "below the LLOQ"}, {"measurement": "brain Cmax, times higher than s.c. or i.m.", "setting": "[2]; 6 mg/kg i.v.", "result": 20, "unit": "times"}, {"measurement": "Brain Cmax", "setting": "[2]; 6 mg/kg i.v., at 10 min", "result": "6516 ng/g and 6516 ± 1091 ng/g"}, {"measurement": "time to reach the brain", "setting": "[2]; 6 mg/kg i.v., post dose", "result": "≤ 10", "unit": "min"}, {"measurement": "Brain Cmax", "setting": "[2]; 6 mg/kg s.c.", "result": "323 ng/g and 323 ± 90 ng/g"}, {"measurement": "time to maximum brain level", "setting": "[2]; 6 mg/kg s.c.", "result": 90, "unit": "min"}, {"measurement": "Brain Cmax", "setting": "[2]; 6 mg/kg s.c. or i.m.", "result": "300 to 400", "unit": "ng/mL"}, {"measurement": "maximum mean 4R brain level", "setting": "[2]; 6 mg/kg s.c., at 90 min", "result": "323 ± 90"}, {"measurement": "plasma 4R level", "setting": "[2]; 6 mg/kg s.c., by 8 hr post dose", "result": "below the LLOQ"}, {"measurement": "Kp at 1.5 h", "setting": "[2]; male, Sprague-Dawley, rat, im, 6 mg/kg i.m.", "result": 2.49}, {"measurement": "Kp at 1.5 h", "setting": "[2]; male, Sprague-Dawley, rat, sc, 6 mg/kg s.c.", "result": 2.48}, {"measurement": "concentration at 1 hr", "setting": "[2]; male, Sprague-Dawley, rat, brain, intravenous, 6 mg/kg i.v., at 1 hr post dose", "result": "3000 ± 771", "unit": "ng/g"}, {"measurement": "AUC(0-inf)", "setting": "[2]; male, Sprague-Dawley, rat, im, 6 mg/kg i.m., plasma", "result": "395 ± 138", "unit": "ng·h/mL"}, {"measurement": "AUC(0-inf)", "setting": "[2]; male, Sprague-Dawley, rat, iv, 6 mg/kg i.v., plasma", "result": "1140 ± 224", "unit": "ng·h/mL"}, {"measurement": "Cmax", "setting": "[2]; [11]", "result": 163, "unit": "ng/mL"}, {"measurement": "Tmax", "setting": "[2]; [11]", "result": "~1", "unit": "h"}, {"measurement": "half-life", "setting": "[2]; male, Sprague-Dawley, rat, plasma, im, 6 mg/kg i.m., male rats, read-out: t1/2 (converted)", "result": "~1.5", "unit": "h"}, {"measurement": "bioavailability", "setting": "[2]; male, Sprague-Dawley, rat, plasma, intramuscular, 6 mg/kg i.m., AUCinf relative to i.v.", "result": 35, "unit": "%"}, {"measurement": "concentration at 1 hr", "setting": "[2]; male, Sprague-Dawley, rat, plasma, intramuscular, 6 mg/kg i.m., at 1 hr", "result": "157 ± 86", "unit": "ng/mL"}, {"measurement": "concentration at 5 min", "setting": "[2]; male, Sprague-Dawley, rat, plasma, intravenous, 6 mg/kg i.v., at 5 min", "result": "975 ± 104", "unit": "ng/mL"}, {"measurement": "concentration at 8 hr", "setting": "[2]; male, Sprague-Dawley, rat, plasma, intravenous, 6 mg/kg i.v., by 8 hr post dose", "result": "< 20", "unit": "ng/mL"}, {"measurement": "Cmax", "setting": "[2]; [12]", "result": "1020 ± 49", "unit": "ng/mL"}, {"measurement": "half-life", "setting": "[2]; male, Sprague-Dawley, rat, plasma, iv, 6 mg/kg i.v., male rats, read-out: t1/2 (converted)", "result": "0.6 ± 0.1", "unit": "h"}, {"measurement": "half-life", "setting": "[2]; male, Sprague-Dawley, rat, plasma, iv, 6 mg/kg i.v., read-out: elimination t1/2", "result": 0.6, "unit": "h"}, {"measurement": "bioavailability", "setting": "[2]; [12]", "result": 100, "unit": "%"}, {"measurement": "Cmax", "setting": "[2]; [13]", "result": "138 ± 28", "unit": "ng/mL"}, {"measurement": "Tmax", "setting": "[2]; [13]", "result": 1, "unit": "h"}, {"measurement": "half-life", "setting": "[2]; male, Sprague-Dawley, rat, plasma, sc, 6 mg/kg s.c., male rats, read-out: t1/2 (converted)", "result": "~1.5", "unit": "h"}, {"measurement": "bioavailability", "setting": "[2]; male, Sprague-Dawley, rat, plasma, subcutaneous, 6 mg/kg s.c., AUCinf relative to i.v.", "result": 41, "unit": "%"}, {"measurement": "concentration at 1 hr", "setting": "[2]; male, Sprague-Dawley, rat, plasma, subcutaneous, 6 mg/kg s.c., at 1 hr", "result": "134 ± 34", "unit": "ng/mL"}, {"measurement": "AUC(0-inf)", "setting": "[2]; male, Sprague-Dawley, rat, sc, 6 mg/kg s.c., plasma", "result": "466 ± 56", "unit": "ng·h/mL"}, {"measurement": "appearance of 4R formulation (solubility)", "setting": "[3]", "result": "clear colorless solution"}, {"measurement": "percent 4R remaining", "setting": "[4]; [7]", "result": 34, "unit": "%"}, {"measurement": "percent 4R remaining", "setting": "[4]; [8]", "result": "less than 2%"}, {"measurement": "mean percent 4R remaining", "setting": "[4]; [9]", "result": "≤ 7.3", "unit": "%"}, {"measurement": "remaining at 5 min, 1 μM", "setting": "[4]; [14]", "result": 19, "unit": "%"}, {"measurement": "remaining at 5 min, 10 μM", "setting": "[4]; [14]", "result": 29, "unit": "%"}, {"measurement": "remaining at 0.25 h, 1 μM", "setting": "[4]; [14]", "result": 4, "unit": "%"}, {"measurement": "remaining at 0.25 h, 10 μM", "setting": "[4]; [14]", "result": "< 2", "unit": "%"}, {"measurement": "mean percent 4R content versus control", "setting": "[5]; 0-60 min at 37°C", "result": "97–101%"}, {"measurement": "mean percent 4R content", "setting": "[5]; 60 min at room temperature", "result": 96, "unit": "%"}, {"measurement": "mean percent 4R content versus control", "setting": "[6]", "result": "96–103%"}]}
{"compound": "Cc1ncc2n1-c1ccc(Cl)cc1C(c1ccccc1F)=NC2", "note": "[MDZ, Midazolam, reference compound]", "values": [{"measurement": "percent remaining with heat-inactivated microsomes", "setting": "[1]; [15]", "result": 89, "unit": "%"}, {"measurement": "percent remaining with heat-inactivated microsomes", "setting": "[4]; [15]", "result": 108, "unit": "%"}]}
